Reference: patent publication US10328049B2, “Infant nutritional product with RRR alpha-tocopherol” (ABBOTT LABORATORIES, priority 2013, dated 2019)

Legend:
[1] = Brain analysis of infant brain (tocopherol content and correlations); assay type: in vivo, human; conditions: formula fed infant brain
Description: Cholesterol is a major component of myelin, and thus, is a marker for extent of CNS myelination. Glutamate is a neurotransmitter, which is reported to stimulate neuron outgrowth and branching. […] Accordingly, an excessively high level of dietary gamma-tocopherol may hinder the brain uptake of RRR alpha-tocopherol, and thus, may hinder CNS development.
Most commercial infant formulas are fortified with synthetic alpha-tocopherols. It has been reported that the plasma […] of the 2R isomers are about equal for animals fed a diet containing synthetic alpha-tocopherols. These findings indicate that RRR alpha-tocopherol is preferably absorbed into the brain or it is metabolized at a much slower rate than RSR, RRS and RSS tocopherols.

[2] = cited from earlier work; for Activity as alpha-TE: alpha-tocopherol equivalents (TE), table from Vitamin E in Health and Disease, 1993, p. 21

SMILES | share of the alpha-tocopherol in brain that is RRR alpha-tocopherol [1] | Activity as alpha-TE [2] [mg/mg compound] | assigned vitamin E activity ([2]; assigned reference activity)
Cc1c(C)c2c(c(C)c1O)CC[C@@](C)(CCC[C@H](C)CCC[C@H](C)CCCC(C)C)O2 [RRR alpha-tocopherol] | over 60% | 1.0 | 1 mg alpha-tocopherol equivalent (TE) per milligram
Cc1cc(O)c(C)c2c1O[C@](C)(CCC[C@H](C)CCC[C@H](C)CCCC(C)C)CC2 [RRR beta-tocopherol] |  | 0.5 | 
Cc1cc(O)cc2c1O[C@](C)(CCC[C@H](C)CCC[C@H](C)CCCC(C)C)CC2 [RRR delta-tocopherol] |  | 0.03 | 
Cc1c(O)cc2c(c1C)O[C@](C)(CCC[C@H](C)CCC[C@H](C)CCCC(C)C)CC2 [RRR gamma-tocopherol] |  | 0.1 | 
CC(C)=CCC/C(C)=C/CC/C(C)=C/CC[C@]1(C)CCc2c(C)c(O)cc(C)c2O1 [RRR beta-tocotrienol] |  | 0.05 | 
CC(=O)Oc1c(C)c(C)c2c(c1C)CCC(C)(CCC[C@H](C)CCC[C@H](C)CCCC(C)C)O2 (mixture of isomers) [Synthetic alpha-tocopherol acetate, alpha-tocopherol acetate] |  | 0.74 | 
CC(C)=CCC/C(C)=C/CC/C(C)=C/CC[C@]1(C)CCc2c(C)c(O)c(C)c(C)c2O1 [RRR alpha-tocotrienol] |  | 0.3 | 
